Laboratory results: US10005815B2, “Biologically cleavable tetrapeptide linking agents” (Arrowhead Madison Inc., priority 2015, dated 2018)

Tested on: liver lysosomal (enzyme) extract
Test: Digestion assay with rat liver lysosomal extract
Format: biochemical
Details: for velocity of digestion, addition of phenylalanine: 54 vs 57, 56 vs 59; for rate and time to completion of digestion, proline at A1 changed to alanine: 33 vs 30, 39 vs 23; for Velocity, Sample / Velocity, Normalized: Table 3; for Velocity, Sample: FCitFP linker with various R5
Procedure: Various amino acid combinations, tetrapeptides, were used to link various first moieties (R^5) and an AENA report group second compound (R^6) to form assay substrates (substrates). Cleavage rate of the peptides were evaluated by analysis of digestion of the substrates in the presence of rat lysosomal extract.
Reporting groups were coupled to the C-terminus of the peptide substrates as described above for UV-vis monitoring to explore the influence of amino acid sequence on kinetics of peptide degradation by HPLC. N-(2-aminoethyl)-4-nitroaniline (AENA) or N-(aminoethyl)-5-napthylamine-1-sulfonic acid (EDANS) were used as reporting groups for HPLC monitoring as neither absorptivity nor lambda maximum were affected for either after cleavage from the peptide. The N-terminus of each peptide substrate was modified with either methoxy polyethylene glycol (PEG12) or N-acetyl galactosamine (NAG(OR)3) (FIG. 1).
Proteolytic digestion experiments were carried out at a fixed substrate concentration (0.51 μmol) using liver lysosomal (enzyme) extract (0.45 μg/μL) in a 25 mM MES solution buffered to pH 5 containing 1% CHAPS and 1.8 mM DTT incubated at 37° C. Enzyme extract was activated in the presence of DTT for 15 minutes at 37° C. prior to addition of AENA labeled peptide substrates. At various time points, up to 26 h, 20 μL aliquots were removed and acidified to a pH of 3 with TFA. Analysis of fractions was performed using HPLC with a Aquasil C18 reverse-phase column (250×4.6, Thermofisher, Waltham, Mass.), monitored at 390 nm and 335 nm for AENA and EDANS respectively. Elution was performed with a gradient of acetonitrile and water buffered with 0.1% formic acid. Generation of unmodified reporter molecule was measured. To minimize freeze thaw cycles the lysosomal extract was dispensed into multiple aliquots prior to storage at −80° C. A new aliquot was employed for each study and used immediately upon thawing. Lysosomal extract was sourced from female Hans Wistar rats by differential density gradient centrifugation (Graham et al. 2000). Protein concentration of lysosomal extract was determined by standard BCA protein assay protocols. […]
Rate (also called velocity of degradation or velocity) was extrapolated during early linear turnover (Table 2). As used herein, rate is defined as the linear rate of reporting group generation at less than 50% completion (digestion rate was assumed to be linear at less than 50% completion). For substrates in which cleavage deviated from consecutive first order kinetics, the percent of reporting group liberated at the endpoint of digestion was used as a metric for comparison.

[1] = Table 4, dipeptide EDANS C-terminal modified substrates
[2] = Table 4, dipeptide EDANS substrates, normalized with compound 60
[3] = AENA substrates, linear rate of reporter generation at <50% completion, pH 5, 37° C.
[4] = AENA substrates, normalized with compound 60 velocity (average 123.8 nmol/h)

Sample Velocity [1] [nmol/h]	Normalized Velocity [2] [nmol/h]	Sample Velocity [3] [nmol/h]	Normalized Velocity [4] [nmol/h]	Substance	further results
7.9	7.2	–	–	H2N-A-PEG4-Glu(EDANS)-NH-(CH2)2-OH [Compound 59]	–
125.7	115.1	–	–	H2N-AP-PEG4-Glu(EDANS)-NH-(CH2)2-OH [Compound 55]	–
177.6	162.6	–	–	H2N-F(Nme)A-Glu(EDANS)-NH-(CH2)2-OH [Compound 51]	–
61.3	56.1	–	–	H2N-FA-PEG4-Glu(EDANS)-NH-(CH2)2-OH [Compound 56]	velocity of digestion, addition of phenylalanine: substantial increase in the velocity of digestion
155.0	132.4	–	–	H2N-FL-PEG4-Glu(EDANS)-NH-(CH2)2-OH [Compound 54]	velocity of digestion, addition of phenylalanine: substantial increase in the velocity of digestion
448.5	383.0	–	–	H2N-FP-PEG4-Glu(EDANS)-NH-(CH2)2-OH [Compound 48]	–
14.4	13.9	–	–	H2N-GP-PEG4-Glu(EDANS)-NH-(CH2)2-OH [Compound 58]	–
58.3	53.3	–	–	H2N-L-PEG4-Glu(EDANS)-NH-(CH2)2-OH [Compound 57]	–
349.1	338.7	–	–	H2N-LP-PEG4-Glu(EDANS)-NH-(CH2)2-OH [Compound 49]	–
156.5	151.9	–	–	H2N-NP-PEG4-Glu(EDANS)-NH-(CH2)2-OH [Compound 52]	–
145.0	140.7	–	–	H2N-SP-PEG4-Glu(EDANS)-NH-(CH2)2-OH [Compound 53]	–
213.5	195.5	–	–	H2N-VP-PEG4-Glu(EDANS)-NH-(CH2)2-OH [Compound 50]	–
–	–	1.6	1.6	NAG(OAc)3-AAA- AENA [Compound 41]	% Released at Endpoint (21 hr): 8.2%
–	–	3.7	3.9	NAG(OAc)3-CitAA- AENA [Compound 40]	% Released at Endpoint (21 hr): 15.6%

More lines, now with the values behind:

Substance	Sample Velocity [1] [nmol/h]	Normalized Velocity [2] [nmol/h]	Sample Velocity [3] [nmol/h]	Normalized Velocity [4] [nmol/h]	further results
NAG(OAc)3-ACA- AENA [Compound 43]	–	–	–	–	% Released at Endpoint (21 hr): 1.1%
NAG(OAc)3-ACitAA- AENA [Compound 35]	–	–	–	–	% Released at Endpoint (21 hr): 49.8%
NAG(OAc)3-CitAAA- AENA [Compound 36]	–	–	–	–	% Released at Endpoint (endpoint at 24 hours): **47.7%
NAG(OAc)3-FCitFA- AENA [Compound 39]	–	–	–	–	rate and time to completion of digestion, proline at A1 changed to alanine: dramatic reduction in rate and time to completion of digestion; % Released at Endpoint (21 hr): 40.5%
NAG(OAc)3-FCitFP-AENA [Compound 22a]	–	–	–	–	rate of proteolytic digestion, influence of R5 (22a vs 23, 22a vs 22b): essentially equivalent in terms of rate of proteolytic digestion; Velocity, Sample: 244.9 nmol/h; Velocity, Normalized (normalized with compound 60): 210.5 nmol/h
NAG(OAc)3-FCitVP- AENA [Compound 26]	–	–	119.5	102.5	% Released at Endpoint (21 hr): 97.8%
NAG(OAc)3-VCitFP- AENA [Compound 28]	–	–	84.3	75.8	% Released at Endpoint (endpoint at 23 hours): *99.4%
NAG(OH)3-FCitAA- AENA [Compound 33]	–	–	–	–	rate and time to completion of digestion, proline at A1 changed to alanine: dramatic reduction in rate and time to completion of digestion; % Released at Endpoint (21 hr): 68.5%
NAG(OH)3-FCitFP-AENA [Compound 22b]	–	–	–	–	Velocity, Sample: 223.7 nmol/h; Velocity, Normalized (normalized with compound 60): 201.0 nmol/h
PEG12-ACitFP- AENA [Compound 31]	–	–	49.5	49.6	% Released at Endpoint (endpoint at 23 hours): *98.9%
PEG12-FCitF(Nme)A- AENA [Compound 29]	–	–	62.5	62.6	rate and completion of digestion, N-methylation at A1 (29 vs 39): faster rate and faster completion of digestion; % Released at Endpoint (endpoint at 23 hours): *97.3%
PEG12-FCitFL- AENA [Compound 27]	–	–	94.5	94.7	% Released at Endpoint (endpoint at 24 hours): **99.7%
PEG12-FDFP- AENA [Compound 34b]	–	–	18.0	16.6	% Released at Endpoint (endpoint at 26 hours): ***66.5%
PEG12-FKFL- AENA [Compound 25b]	–	–	117.0	117.4	% Released at Endpoint (endpoint at 24 hours): **99.8%
PEG12-FKFP- AENA [Compound 24b]	–	–	134.8	123.9	velocity, proline vs leucine at A1 (23 vs 27, 24b vs 25b): small increase in velocity; % Released at Endpoint (endpoint at 26 hours): ***98.9%
PEG12-FNFP- AENA [Compound 32b]	–	–	42.0	38.6	% Released at Endpoint (endpoint at 26 hours): ***99.3%
PEG12-GFLG- AENA [Compound 38]	–	–	10.0	9.7	% Released at Endpoint (endpoint at 24 hours): **47.8%
